Reference: BigSolDB 2.1

N[C@H](Cc1c[nH]c2ccccc12)C(=O)O
solubility (mole fraction)
Settings | 283.15 K | 288.15 K | 293.15 K | 298.15 K | 303.15 K | 308.15 K | 313.15 K | 318.15 K | 323.15 K | 328.15 K
in DMSO | – | – | 0.00359 | 0.00381 | 0.00464 | 0.00551 | 0.00596 | 0.00705 | 0.00778 | 0.00911
in acetonitrile | 5.75e-05 | 6.84e-05 | 8.14e-05 | 0.000107 | 0.000128 | 0.00015 | 0.000206 | 0.000241 | 0.000307 | 0.000372
in ethyl acetate | 0.000238 | 0.000302 | 0.000376 | 0.000476 | 0.000541 | 0.000699 | 0.000837 | 0.00115 | 0.00141 | 0.0018
in ethylene glycol | 0.00148 | 0.00167 | 0.00246 | 0.00318 | 0.00437 | 0.00547 | 0.00804 | 0.00999 | 0.0125 | 0.0161
in n-butanol | 1.97e-05 | 2.21e-05 | 2.99e-05 | 3.52e-05 | 4.81e-05 | 5.68e-05 | 7.9e-05 | 9.26e-05 | 0.00012 | 0.000137
in n-octanol | 1.36e-05 | 1.53e-05 | 1.88e-05 | 2.49e-05 | 2.8e-05 | 3.61e-05 | 4.02e-05 | 4.83e-05 | 5.87e-05 | 6.53e-05
in n-propanol | 4.51e-05 | 6.23e-05 | 7.27e-05 | 8.69e-05 | 0.000111 | 0.000127 | 0.000157 | 0.000177 | 0.000219 | 0.000244
